Series [1] in a line: Maximal tolerable dose (MTD) with increasing peptide doses. In kind it is in vivo, mice. An excerpt:
(§1) In some embodiments targeting peptides selective for angiogenic vasculature in adipose tissue could be used to treat obesity associated disorders, for example for weight reduction or for preventing weight gain. […] Because brown adipose tissue more vascularized, a vasculature based targeting approach would be very effective for delivery of therapeutic reagents to BAT for activation of this tissue.
When the therapeutic treatment of adipose associated body composition or body weight disorders such as obesity, lypodystrophy, diabetes or metabolic syndrome, fibrosis and cancer is contemplated, the appropriate dosage may also be determined using animal studies to determine the maximal tolerable dose, or MTD, of a bioactive agent per kilogram weight of the test subject. In general, at least one animal species tested is mammalian. Those skilled in the art regularly extrapolate doses for efficacy and avoiding toxicity to other species, including human. Before human studies of efficacy are undertaken, Phase I clinical studies help establish safe doses.
(§2) This reduction was due to the targeted depletion of ASC through apoptotic cell death as evidenced at 48 hrs after injection (see FIG. 14).

Series [2] has as its system cells from the kidney or peripheral blood. The series is described as follows: In vivo apoptosis in non-target tissues, APO-TRACE and flow cytometry. Set-up: species or system mice. The note with it: 2 mg injected, 48 hrs.
Text: FIG. 15 illustrates that apoptosis induced by treatment with cytotoxic WAT7-KLAKLAK2 (SEQ ID NO:13-SEQ ID NO:31) all-D-peptide was limited to target tissue. APO-TRACE reagent (Sigma) and flow cytometry were used to detect apoptosis induction in both subcutaneous and intraperitoneal WAT cells, but not in cells from the kidney or peripheral blood.
as §1, §2

The subject of series [3] is CD34+CD31−CD45− cells (MSC) from WAT. The series is described as follows: Synchronous in vivo phage display biopanning, clones recovered from WAT MSC (ASC). Set-up: species or system mouse. The note with it: percent of sequenced phage clones carrying the insert in WAT after 4 rounds of synchronous in vivo biopanning on CD34+CD31−CD45− cells. An excerpt:
(§3) Phage Library Screening: Random peptide libraries based on the M13-derived bacteriophage vector fUSE5 displaying inserts CX7C, CX8C, and CX9C on the pIII protein were admixed (1:1:1) to the combined 10^10 TU of mixed library for the screen performed based on the synchronous biopanning in vivo upon tail vein injection (see for example, US20050074747 and Arap, et al., Nat. Med. 8:121-127, 2002; Kolonin, et al., FASEB J. 20: 979-981, 2006).
(§4) For competitive homing experiment, 5×10^9 TU for each of the 11 chosen phage clones were admixed and the combined 5.5×10^10 TU was injected. For validation of individual clones, 1×10^10 TU for each phage clones was injected. After 1 hr of circulation and heart perfusion with 10 ml of phosphate buffer saline (PBS), WAT, tibia/femurs, bone-associated skeletal muscle, and lungs were collected. Bone marrow was isolated by flushing tibia/femurs. Hematopoietic and endothelial cells were depleted from cell suspensions of each organ by Dynabeads (Invitrogen) coated with anti-TER119, anti-CD31, and anti-CD45 antibodies (BD Biosciences), after which the remaining cells were processed by FACS to purify CD34+CD31−CD45− cells. Bound phage were recovered by infecting K91 E. coli, quantified by phage transforming unit (TU) counting, and processed for sequencing of the peptide-coding DNA as described in Arap, et al. 2002, ibid and Kolonin, et al., 2006, ibid. For identification of conserved peptide motifs, ClustalW2 software was used.
(§5) Methods for isolation of MSC by fluorescence-activated cell sorting (FACS) from organ cell suspensions based on the C34+CD31−CD45− immunophenotype (FIG. 8B) were combined with phage display and optimized for ASC. By adapting the previously described “synchronous in vivo biopanning” method of (Kolonin et al., 2006, ibid), a mixture of cyclic CX7C, CX8C, and CX9C (C: disulfide-bonded cysteines; X: any amino acid) random peptide libraries was screened (FIG. 1A). This approach made it possible to select MSC probes from the pool of over 10^11 combinatorial peptides. Throughout the screen, progressive enrichment in the number of phage particles recovered on MSC from WAT, as well as from the chosen control organs: lung, bone marrow, and skeletal muscle (FIG. 1B) was observed.
(§6) After 4 rounds of synchronous in vivo biopanning, eight CX7C and CX8C sequences repeatedly recovered from ASC with frequency above 1% were identified, which were termed WAT1 through WAT8 (see Table 1 below). In parallel, a matched number of peptide inserts homing to lung stromal cells (LSC) were sequenced as a control. None of the WAT-homing peptides were enriched in the lung. Four sequences repeatedly recovered in the lung with frequency above 1%, were termed LU1 through LU4 (see Table 1 below). […] Because the focus of this study is WAT-specific MSC, this clone was excluded from further analysis. Other selected peptides were subjected to an in vivo competition assay in order to identify those with the highest specificity of binding. Equal amounts of phage for the 11 clones displaying peptides WAT1 through WAT7 (SEQ ID NOS: 1-14) and LU1 through LU4 (SEQ ID NOS: 17-24) were admixed and injected into a mouse. Homing specificity of each clone was assessed by quantifying frequency of phage coding for each peptide selected on C34+CD31−CD45− cells isolated from either WAT or lung.
(§7) Shown in Table 1 above are the percent (%) of the sequenced phage clones that carried the indicated WAT or LU insert present within WAT (% in WAT) or lung (% in LUNG) following 4 rounds of synchronous in vivo biopanning on CD34+CD31−CD45− cells.

Series [4] concerns C34+CD31−CD45− cells isolated from lung. The series can be described thus: In vivo competition (re-homing) assay of 11 admixed phage clones, lung. Also on record: species or system mouse. The following applies: equal amounts of 11 phage clones mixed and injected; percent of sequenced clones on C34+CD31−CD45− cells from lung. The protocol: as §4, §6
Series [5] has as its system C34+CD31−CD45− cells isolated from WAT. The series is described as follows: In vivo competition (re-homing) assay of 11 admixed phage clones, WAT. Also on record: species or system mouse. The note with it: equal amounts of 11 phage clones mixed and injected; percent of sequenced clones on C34+CD31−CD45− cells from WAT. The protocol:
as §4, §6

Series [6] addresses T1, recombinant bacterially-purified full-length core mouse DCN (mDCN) (Mus musculus, UniProt P28654).
T1 construct: cloning fragments encoding amino acids 1-354 and 45-354 of mouse DCN cDNA (OriGene); His6; made in house
T1 sequence (P28654 17-354): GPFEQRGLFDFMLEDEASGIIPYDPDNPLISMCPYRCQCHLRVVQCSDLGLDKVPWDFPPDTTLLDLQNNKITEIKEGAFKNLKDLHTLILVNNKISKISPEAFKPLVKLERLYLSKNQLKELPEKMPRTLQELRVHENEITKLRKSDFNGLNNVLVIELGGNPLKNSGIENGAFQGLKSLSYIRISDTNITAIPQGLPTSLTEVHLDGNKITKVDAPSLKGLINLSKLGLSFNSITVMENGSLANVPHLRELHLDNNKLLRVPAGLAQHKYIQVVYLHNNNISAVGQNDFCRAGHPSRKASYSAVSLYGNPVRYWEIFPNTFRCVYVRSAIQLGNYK
The series is described as follows: ELISA binding assay, recombinant full-length core mouse DCN. The following applies: His6-tagged protein coated at 10 μg/ml. From the text:
(§8) Immunoblotting and Binding Assays: Protein preparations resolved on SDS-PAGE were blotted onto Immobilon-FL membrane (Millipore), blocked with Odyssey blocking buffer (Licor Biosciences), and probed (in PBS/0.05% Triton X-100) with goat anti-DCN (R&D Systems, 1:1,000), rabbit anti-ANX2A (Aviva, 1:1,000), rabbit anti-mouse b-actin (Abcam, 1:10,000) antibodies, or pre- and post-immune antisera against WAT7 (1:1,000) as indicated. Signal was detected by Odyssey imaging system using anti-goat IRDye 800CW or anti-rabbit IRDye 680 both from Licor Biosciences. Bovine DCN was from Sigma-Aldrich, NS0-derived murine DCN was from R&D Systems. Murine DCN cDNA was generated from WAT total RNA using SuperScript kit (Invitrogen). For bacterial expression, full-length mouse core DCN and ΔDCN isoforms were produced by cloning fragments encoding amino acids 1-354 and 45-354 of mouse DCN cDNA (OriGene) or of CLIC4 cDNA (OriGene) in-frame with the His6Tag into pET28a vector, respectively. His6-tagged proteins were purified with His-Tag kit (Novagen). […] Bound peptides or FLAG-resistin were probed with corresponding rabbit anti-peptide Genemed antibodies (1:2,000) or rabbit anti-FLAG antibodies (Sigma-Aldrich, 1:2,000) followed by secondary goat anti-rabbit HRP-conjugated antibodies (Millipore, 1:5,000) and signal detection with Ultra-TMB (Pierce) substrate and measurement of absorbance at 450 nm. […]
In general terms: An ELISA detects its analyte on a solid surface through an enzyme-linked reagent.

Series [7] concerns CD34+CD31−CD45− cells (MSC) from lung. The series can be described thus: Synchronous in vivo phage display biopanning, clones recovered from lung MSC (LSC). The following applies: percent of sequenced phage clones carrying the insert in lung after 4 rounds of synchronous in vivo biopanning on CD34+CD31−CD45− cells. Also on record: species or system mouse.
Text: as §3, §4, §5, §6, §7

The target of series [8] is T2, full-length glycosylated mouse DCN (mDCN*) (Mus musculus, UniProt P28654).
T2 construct: full-length glycosylated mouse DCN (mDCN*); purchased R&D Systems; host or cells: NS0
T2 sequence (P28654 31-354): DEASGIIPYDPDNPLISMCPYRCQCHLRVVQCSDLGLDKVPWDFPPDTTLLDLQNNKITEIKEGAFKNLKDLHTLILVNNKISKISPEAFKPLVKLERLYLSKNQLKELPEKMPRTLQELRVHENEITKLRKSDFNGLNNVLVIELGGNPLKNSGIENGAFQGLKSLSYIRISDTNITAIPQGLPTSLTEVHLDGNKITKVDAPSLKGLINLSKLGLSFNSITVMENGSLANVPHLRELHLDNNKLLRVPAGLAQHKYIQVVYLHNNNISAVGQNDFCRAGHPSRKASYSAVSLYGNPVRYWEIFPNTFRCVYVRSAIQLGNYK
The series is described as follows: ELISA binding assay, glycosylated mouse DCN. The following applies: compared with BSA background.
Text: as §8

Series [9] addresses T3, glycosylated bovine DCN (bDCN*) (Bos taurus, UniProt P21793).
T3 construct: purchased Sigma-Aldrich
The series can be described thus: ELISA binding assay, glycosylated bovine DCN. The following applies: compared with BSA background.
Text: as §8

In series [10] the target is T4, recombinant bacterially-purified mouse ΔDCN (Mus musculus, UniProt P28654).
T4 construct: cloning fragments encoding amino acids 1-354 and 45-354 of mouse DCN cDNA (OriGene); His6; made in house
T4 sequence (P28654 45-354): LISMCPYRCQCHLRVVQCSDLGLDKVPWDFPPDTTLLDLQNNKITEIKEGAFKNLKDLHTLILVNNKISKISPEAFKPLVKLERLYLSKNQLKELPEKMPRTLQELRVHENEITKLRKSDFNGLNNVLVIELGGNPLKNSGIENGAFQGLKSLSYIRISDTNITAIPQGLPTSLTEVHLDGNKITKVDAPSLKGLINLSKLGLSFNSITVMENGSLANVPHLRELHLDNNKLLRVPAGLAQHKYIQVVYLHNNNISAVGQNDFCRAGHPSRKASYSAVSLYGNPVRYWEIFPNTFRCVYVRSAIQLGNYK
The series is described as follows: ELISA binding assay, ΔDCN. The following applies: His6-tagged protein coated at 10 μg/ml.
Text: as §8

Where two headings read alike, the source gives them in different places. Some results are limits rather than exact numbers.

T3 sequence (P21793 31-360): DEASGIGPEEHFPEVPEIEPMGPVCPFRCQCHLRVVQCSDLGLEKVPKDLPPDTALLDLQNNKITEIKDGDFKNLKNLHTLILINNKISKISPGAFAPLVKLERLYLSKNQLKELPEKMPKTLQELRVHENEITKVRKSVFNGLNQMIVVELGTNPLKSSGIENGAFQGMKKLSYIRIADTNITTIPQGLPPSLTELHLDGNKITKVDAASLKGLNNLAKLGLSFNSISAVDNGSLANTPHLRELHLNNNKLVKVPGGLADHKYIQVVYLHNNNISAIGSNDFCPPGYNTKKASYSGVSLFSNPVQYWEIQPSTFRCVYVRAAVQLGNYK

What is called MTD is the highest dose tested that stayed within the study's limit of toxicity. Regarding `CC(C)C[C@@H](NC(=O)[C@@H](CCCCN)NC(=O)CCCCCNC(=O)[C@H]1CSSC[C@@H](N)C(=O)N[C@H](CO)C(=O)N[C@H](Cc2c[nH]c3ccccc23)C(=O)N[C@H](CCCCN)C(=O)N[C@H](Cc2ccc(O)cc2)C(=O)N[C@H](Cc2c[nH]c3ccccc23)C(=O)N[C@H](Cc2ccccc2)C(=O)NCC(=O)N[C@H](CCC(=O)O)C(=O)N1)C(=O)N[C@H](C)C(=O)N[C@H](CCCCN)C(=O)N[C@H](CC(C)C)C(=O)N[C@H](C)C(=O)N[C@H](CCCCN)C(=O)N[C@H](CCCCN)C(=O)N[C@H](CC(C)C)C(=O)N[C@H](C)C(=O)N[C@H](CCCCN)C(=O)N[C@H](CC(C)C)C(=O)N[C@H](C)C(=O)N[C@H](CCCCN)C(=O)O` [WAT7-KLAKLAK2], the MTD entry in series [1] is “No MTD was reached”; in series [1] (mouse, in vivo, read-out: MTD) it was above 100 mg/kg. Further, the “apoptotic cell death in kidney or peripheral blood” value in series [2] is listed as “no apoptotic cell death was identified”.

Turning to “YKNVDSGG [WAT-2, used as control peptide]”, the “% in WAT” value in series [3] turned out to be 2.9%. Further, the “Re-home to Lung (%)” value in [4] is 2.9%. In series [5], the “Re-home to WAT (%)” value worked out at 2.1%. In addition, the “binding to recombinant core mouse DCN (OD450)” value in [6] is listed as “did not display DCN binding”. Also, the “% in LUNG” value in series [7] is on record as 0%.

B1: Resistin: FLAG-tagged mouse resistin produced in HEK293 cells; WAT-secreted adipokine, ligand of ΔDCN (protein)
chain: SSMPLCPIDEAIDKKIKQDFNSLFPNAIKNIGLNCWTVSSRGKLASCPEGTAVLSCSCGSACGSWDIREEKVCHCQCARIDWTAARCCKLQVAS
For B1, in series [8], the “binding to glycosylated mouse DCN (OD450)” value was “completely inefficient in binding”. In addition, the “binding to glycosylated bovine DCN (OD450)” value in series [9] is recorded as “completely inefficient in binding”. For the same molecule, the “binding to ΔDCN (OD450)” value in series [10] is given as “dose-dependent”.
